From ChEMBL document CHEMBL3994622, “Design and synthesis of new RAF kinase-inhibiting antiproliferative quinoline derivatives. Part 2: Diarylurea derivatives” (Eur J Med Chem, 2017)

Key:
Assay type in all cases: functional
[1] = system: A549; assay: Growth inhibition of human A549/ATCC cells assessed as cell growth at 0.01 uM incubated for 48 hrs by sulforhodamine B assay relative to control; conditions: A549, 48 h, read-out: Activity
[2] = system: RPMI-8226; assay: Growth inhibition of human RPMI8226 cells assessed as cell growth at 0.01 uM incubated for 48 hrs by sulforhodamine B assay relative to control; conditions: RPMI-8226, 48 h, read-out: Activity
[3] = system: SNB-75; assay: Growth inhibition of human SNB75 cells assessed as cell growth at 0.01 uM incubated for 48 hrs by sulforhodamine B assay relative to control; conditions: SNB-75, 48 h, read-out: Activity
[4] = system: EKVX; assay: Growth inhibition of human EKVX cells assessed as cell growth at 10 uM incubated for 48 hrs by sulforhodamine B assay relative to control; conditions: read-out: Activity
[5] = system: UACC-62; assay: Growth inhibition of human UACC62 cells assessed as cell growth at 100 uM incubated for 48 hrs by sulforhodamine B assay relative to control; conditions: UACC-62, 48 h, read-out: Activity
[6] = system: UO-31; assay: Growth inhibition of human UO31 cells assessed as cell growth at 100 uM incubated for 48 hrs by sulforhodamine B assay relative to control; conditions: UO-31, 48 h, read-out: Activity
[7] = system: EKVX; assay: Growth inhibition of human EKVX cells assessed as cell growth at 0.1 uM incubated for 48 hrs by sulforhodamine B assay relative to control; conditions: read-out: Activity
[8] = system: BT-549; assay: Growth inhibition of human BT549 cells assessed as cell growth at 10 uM incubated for 48 hrs by sulforhodamine B assay relative to control; conditions: BT-549, 48 h, read-out: Activity
[9] = system: SNB-75; assay: Growth inhibition of human SNB75 cells assessed as cell growth at 10 uM incubated for 48 hrs by sulforhodamine B assay relative to control; conditions: SNB-75, 48 h, read-out: Activity
[10] = system: HCT-116; assay: Growth inhibition of human HCT116 cells assessed as cell growth at 10 uM incubated for 48 hrs by sulforhodamine B assay relative to control; conditions: HCT-116, 48 h, read-out: Activity
[11] = system: SW-620; assay: Growth inhibition of human SW620 cells assessed as cell growth at 0.01 uM incubated for 48 hrs by sulforhodamine B assay relative to control; conditions: SW-620, 48 h, read-out: Activity
[12] = system: SK-MEL-5; assay: Growth inhibition of human SK-MEL-5 cells assessed as cell growth at 0.1 uM incubated for 48 hrs by sulforhodamine B assay relative to control; conditions: SK-MEL-5, 48 h, read-out: Activity
[13] = system: OVCAR-4; assay: Growth inhibition of human OVCAR4 cells assessed as cell growth at 0.1 uM incubated for 48 hrs by sulforhodamine B assay relative to control; conditions: OVCAR-4, 48 h, read-out: Activity
[14] = system: NCI-H322M; assay: Growth inhibition of human NCI-H322M cells assessed as cell growth at 10 uM incubated for 48 hrs by sulforhodamine B assay relative to control; conditions: read-out: Activity
[15] = system: SN12C; assay: Growth inhibition of human SN12C cells assessed as cell growth at 0.01 uM incubated for 48 hrs by sulforhodamine B assay relative to control; conditions: read-out: Activity
[16] = system: SK-MEL-5; assay: Growth inhibition of human SK-MEL-5 cells assessed as cell growth at 0.03 uM incubated for 48 hrs by sulforhodamine B assay relative to control; conditions: SK-MEL-5, 48 h, read-out: Activity
[17] = system: NCI-H460; assay: Growth inhibition of human NCI-H460 cells assessed as cell growth at 0.3 uM incubated for 48 hrs by sulforhodamine B assay relative to control; conditions: NCI-H460, 48 h, read-out: Activity
[18] = system: SF-295; assay: Growth inhibition of human SF295 cells assessed as cell growth at 0.03 uM incubated for 48 hrs by sulforhodamine B assay relative to control; conditions: SF-295, 48 h, read-out: Activity
[19] = system: SNB-75; assay: Growth inhibition of human SNB75 cells assessed as cell growth at 0.3 uM incubated for 48 hrs by sulforhodamine B assay relative to control; conditions: SNB-75, 48 h, read-out: Activity
[20] = system: SW-620; assay: Growth inhibition of human SW620 cells assessed as cell growth at 0.003 uM incubated for 48 hrs by sulforhodamine B assay relative to control; conditions: SW-620, 48 h, read-out: Activity
[21] = system: OVCAR-3; assay: Growth inhibition of human OVCAR3 cells assessed as cell growth at 30 uM incubated for 48 hrs by sulforhodamine B assay relative to control; conditions: OVCAR-3, 48 h, read-out: Activity
[22] = system: DU-145; assay: Growth inhibition of human DU145 cells assessed as cell growth at 0.03 uM incubated for 48 hrs by sulforhodamine B assay relative to control; conditions: DU-145, 48 h, read-out: Activity
[23] = system: NCI-H226; assay: Growth inhibition of human NCI-H226 cells assessed as cell growth at 0.03 uM incubated for 48 hrs by sulforhodamine B assay relative to control; conditions: NCI-H226, 48 h, read-out: Activity
[24] = system: ACHN; assay: Growth inhibition of human ACHN cells assessed as cell growth at 0.03 uM incubated for 48 hrs by sulforhodamine B assay relative to control; conditions: read-out: Activity
[25] = system: DU-145; assay: Growth inhibition of human DU145 cells assessed as cell growth at 0.003 uM incubated for 48 hrs by sulforhodamine B assay relative to control; conditions: DU-145, 48 h, read-out: Activity
[26] = system: HCT-15; assay: Growth inhibition of human HCT15 cells assessed as cell growth at 0.3 uM incubated for 48 hrs by sulforhodamine B assay relative to control; conditions: HCT-15, 48 h, read-out: Activity
[27] = system: U-251; assay: Growth inhibition of human U251 cells assessed as cell growth at 30 uM incubated for 48 hrs by sulforhodamine B assay relative to control; conditions: U-251, 48 h, read-out: Activity
[28] = system: SF-295; assay: Growth inhibition of human SF295 cells assessed as cell growth at 0.003 uM incubated for 48 hrs by sulforhodamine B assay relative to control; conditions: SF-295, 48 h, read-out: Activity
[29] = system: NCI-H23; assay: Growth inhibition of human NCI-H23 cells assessed as cell growth at 0.3 uM incubated for 48 hrs by sulforhodamine B assay relative to control; conditions: NCI-H23, 48 h, read-out: Activity
[30] = system: NCI-H23; assay: Growth inhibition of human NCI-H23 cells assessed as cell growth at 0.003 uM incubated for 48 hrs by sulforhodamine B assay relative to control; conditions: NCI-H23, 48 h, read-out: Activity
[31] = system: MCF7; assay: Growth inhibition of human MCF7 cells assessed as cell growth at 30 uM incubated for 48 hrs by sulforhodamine B assay relative to control; conditions: MCF7, 48 h, read-out: Activity
[32] = system: MDA-MB-231; assay: Growth inhibition of human MDA-MB-231 cells assessed as cell growth at 0.003 uM incubated for 48 hrs by sulforhodamine B assay relative to control; conditions: MDA-MB-231, 48 h, read-out: Activity
[33] = system: KM12; assay: Growth inhibition of human KM12 cells assessed as cell growth at 30 uM incubated for 48 hrs by sulforhodamine B assay relative to control; conditions: KM12, 48 h, read-out: Activity
[34] = system: HOP-62; assay: Growth inhibition of human HOP62 cells assessed as cell growth at 3 uM incubated for 48 hrs by sulforhodamine B assay relative to control; conditions: HOP-62, 48 h, read-out: Activity
[35] = system: OVCAR-4; assay: Growth inhibition of human OVCAR4 cells assessed as cell growth at 30 uM incubated for 48 hrs by sulforhodamine B assay relative to control; conditions: OVCAR-4, 48 h, read-out: Activity

SMILES	growth at 0.01 µM [1]	growth at 0.01 µM [2]	growth at 0.01 µM [3]	growth at 10 µM [4]	growth at 100 µM [5]	growth at 100 µM [6]	growth at 0.1 µM [7]	growth at 10 µM [8]	growth at 10 µM [9]	growth at 10 µM [10]	growth at 0.01 µM [11]	growth at 0.1 µM [12]	growth at 0.1 µM [13]	growth at 10 µM [14]	growth at 0.01 µM [15]	growth at 0.03 µM [16]	growth at 0.3 µM [17]	growth at 0.03 µM [18]	growth at 0.3 µM [19]	growth at 0.003 µM [20]	other results
COc1cc2cc(Oc3ccc(NC(=O)Nc4ccc(Cl)c(Cl)c4)cc3)c(C)nc2cc1OC	96%	100%	89%	-2%	-63%	-57%	93%	5%	-7%	2%	101%	100%	87%	47%	93%						
COc1cc2cc(Oc3ccc(NC(=O)Nc4cc(C(F)(F)F)cc(C(F)(F)F)c4)cc3)c(C)nc2cc1OC	101%	98%	81%	-55%	-79%	-89%	89%	-64%	-32%	-84%	100%	101%	83%	-85%	96%						
COc1cc2cc(Oc3ccc(NC(=O)Nc4ccc(Cl)c(C(F)(F)F)c4)cc3)c(C)nc2cc1OC																92%	100%	91%	90%	95%	growth at 30 µM [21]: -87%; growth at 0.03 µM [22]: 96%; growth at 0.03 µM [23]: 98%; growth at 0.03 µM [24]: 97%; growth at 0.003 µM [25]: 100%; growth at 0.3 µM [26]: 91%; growth at 30 µM [27]: -89%; growth at 0.003 µM [28]: 90%; growth at 0.3 µM [29]: 92%; growth at 0.003 µM [30]: 97%; growth at 30 µM [31]: -79%; growth at 0.003 µM [32]: 101%; growth at 30 µM [33]: -84%; growth at 3 µM [34]: 26%; growth at 30 µM [35]: -62%
Cc1nc2cc(O)c(O)cc2cc1Oc1ccc(NC(=O)Nc2ccc(Cl)c(Cl)c2)cc1																101%	99%	90%	75%	100%	growth at 30 µM [21]: -29%; growth at 0.03 µM [22]: 111%; growth at 0.03 µM [23]: 103%; growth at 0.03 µM [24]: 107%; growth at 0.003 µM [25]: 105%; growth at 0.3 µM [26]: 101%; growth at 30 µM [27]: 3%; growth at 0.003 µM [28]: 93%; growth at 0.3 µM [29]: 94%; growth at 0.003 µM [30]: 96%; growth at 30 µM [31]: 1%; growth at 0.003 µM [32]: 110%; growth at 30 µM [33]: -1%; growth at 3 µM [34]: 87%; growth at 30 µM [35]: 9%
